Measured values published in patent US20250352524A1, “PREVENTION OF METASTATIC OUTGROWTH USING TEAD INHIBITORS” (Georgetown University, priority 2024, published 2025).

How the values were obtained:
4T1 cells = 4T1 cells injected into tail vein of BALB/c mice, lung metastasis and T-cell profiling; type: in vivo
Description: There was no difference in the primary tumor size between treatment groups nor the size of recurrent tumors at 6 weeks (FIG. 9, Panel B and FIG. 8, Panel C). […] To investigate tissue specific effects, gene expression changes between treatment groups in lung and tumor tissues were analyzed by RNA-sequencing. […] To reduce the impact of TEAD inhibition on cancer cell intrinsic function such as dissemination and invasion, 4T1, a triple negative mouse mammary carcinoma cell line (Pulaski & Ostrand-Rosenberg, 2000), was injected into the tail vein of BALB/c mice that directly seed into the lung tissue. A reduction in lung metastases, as well as the suppression of inflammatory pathways, were observed (FIG. 9, Panels E and F, and FIG. 8, Panel F).
To determine early changes in the T-cell population, lung and spleen tissues of BALB/c mice that were intravenously injected with 4T1 were processed and analyzed by flow cytometry 10 days post inoculation (FIG. 9, Panel E). […] M1-like macrophages and IL12 signaling play a critical role in the crosstalk between macrophages and T-cells triggering their proliferation and differentiation of T-cell subsets that can eliminate tumor cells unlike the pro-tumor M2-like macrophages (Guerriero, 2019; Oishi et al., 2016; Shao et al., 2023). Thus, the interplay between macrophage and T-cells after iTEAD treatment is likely to play a role in the increase in CD8+ T-cell and Th1 CD4+ cell populations in the lungs.
Formalin-fixed, paraffin embedded (FFPE) lung tissue sections were stained with hematoxylin and eosin. Immunohistochemistry staining was performed on FFPE tumor and lung tissue sections. Slides were deparaffinized in xylene and rehydrated following a series of ethanol washes. Heat-induced antigen retrieval was then performed by placing slides in warmed sodium citrate buffer (pH 6.0) (Invitrogen, 005000) in a pre-heated steamer for 20 minutes. Slides were cooled at room temperature for an additional 20 minutes, prior to quenching endogenous peroxidase activity using 3% hydrogen peroxide buffer (Fisher, BP2633500) for 10 minutes. Next, slides were incubated overnight at 4° C. with either anti-CD8 (Cell Signaling Technology, #98941), anti-CD68 (Abcam, ab303565), anti-CD206 (Cell Signaling Technology, #24595), or anti-F480 (Cell Signaling Technology, #70076). Following PBS washes, the slides are then stained with a biotinylated secondary antibody using the VECTASTAIN Elite ABC-HRP Kit according to the user's manual (Vector Laboratories, PK-6101). Positive brown staining was produced by applying ImmPACT DAB EqV Substrate Kit (Vector Laboratories, SK-4103) to the slides, which were then counterstained with hematoxylin (Sigma, MHS16). Images were captured using the Olympus BX40 microscope, and positive staining was quantified manually. Immunofluorescent staining was performed on lung tissue sections. Slides were baked at 60°, deparaffinized in xylene, rehydrated, washed in DI water and incubated with 10% neutral buffered formalin (NBF) for an additional 20 minutes to increase tissue-slide retention. Epitope retrieval/microwave treatment (MWT) for all antibodies was performed by boiling slides in Antigen Retrieval buffer 6 (AR6 pH6, Akoya AR6001KT). Protein blocking is performed using antibody diluent/blocking buffer (Akoya, ARD1001EA) for 10 minutes at room temperature. […] Slides were scanned at 10× magnification using the Vectra 3.0 Automated Quantitative Pathology Imaging System (PerkinElmer/Akoya). […]

[1] = system: peritoneal macrophages and T-cells; test: Cytokine array, pretreated peritoneal macrophages mixed with T-cells; type: cell-based, mouse
From the text: To investigate whether the effect of iTEAD treatment on macrophages can enhance their crosstalk with T-cells in the lung microenvironment, peritoneal macrophages+/−iTEAD were first isolated and characterized as a model of resident macrophages for ex vivo experiments (FIG. 14, Panel A). It was observed that treatment with VT107 decreased gene expression of M2-like and fibrosis regulators, Aldh1a1 and Cc117 (Chen et al., 2020), as well as TEAD4 and its downstream target gene Ankrd1. […] The iTEAD pretreated peritoneal macrophages and untreated T-cells isolated from the spleen of tumor naïve mice (FIG. 14, Panel A) were then mixed for 5 hours before collecting the conditioned media for analysis. […] Next, these immune cell mixes were added to 4T1 spheres that were embedded into matrix. […] This effect was reversed by an IL12 neutralizing antibody. No change in cleaved caspase-3 in 4T1 cells in the presence of VT107-treated T-cells or macrophages alone, was detected at 24 hours (FIG. 14, Panels C and D). 4T1 cells were then plated and allowed to attach on electrode-coated arrays to monitor cancer cell viability before the addition of macrophages+/−iTEAD and T-cells. […] This reversal of T-cell cytotoxicity by IL12 antibodies was not observed in VT107-treated T-cells in the absence of macrophages (FIG. 15, Panel E) indicating a critical role for IL12 in the crosstalk between macrophages and T-cells.
Cells were grown in their recommended cell culture media and treated with […] VT107 for 24 or 72 hours. Conditioned media was collected and passed through a 0.2 micron PES filter then analyzed on a RayBio® Mouse Cytokine Array (#AAM-TCR-1) according to the manufacture's protocol. The array includes two spots for each cytokine. The luminescence signal was normalized to the positive control on each membrane, then to the vehicle treatment signal of each cytokine.

[2] = macrophages pretreated 24 hrs with 1 μM VT107, mixed with untreated T-cells 5 hours
[3] = treated overnight with 1 μM VT107

Substance: VT107
- inflammatory pathways in lungs (4T1 cells; 30 mg/kg VT107 daily): suppression
- lung metastases (4T1 cells; 30 mg/kg VT107 daily by oral gavage vs vehicle): reduction
- T-bet staining in the lungs (4T1 cells; IHC, week 2): significant increase
- overall abundance of CD4+ and CD8+ T-cell populations (4T1 cells; flow cytometry 10 days post inoculation): no difference
- helper 1 T-cell (Th1) population (4T1 cells; flow cytometry 10 days post inoculation, lung): increased
- IL6 level in the cell mix [1, 2]: significantly increased
- IL12 level in the cell mix [1, 2]: significantly increased
- IL4 in T-cells [1, 3]: slightly increased
- IL12 or IL6 levels in macrophages or T-cells alone [1, 3]: No significant change
